This passage reports Ki results from US7045532B2 (Millennium Pharmaceuticals, Inc., priority 1999, dated 2006).

Assay [1] addresses ACE-2 (Rattus norvegicus, UniProt Q5EGZ1). Kind of assay: ACE-2 Competitive Substrate Assay, rat ACE-2. It counts as biochemical. Conditions: Ki class; compounds tested in 5% DMSO, 12 concentrations.
Description: ACE-2 enzymatic activity was assayed in microtitre plates by the following procedure. The ACE-2 assay buffer used contained 50 mM MES (Boehringer-Mannheim), 300 mM NaCl (Sigma) and 0.01% Brij-35 (Pierce Chemical Co.) at pH 6.5.
Reactions were mixed and incubated at 25° C.
The activity of the test compounds was investigated using the procedure outlined above. The compounds were tested in 5% DMSO. Enzyme activity was measured at 12 compound concentrations.
For a further assay, the target named is T1, Carboxypeptidase A (Bos taurus, UniProt P00730).
T1 sequence (P00730 111-419): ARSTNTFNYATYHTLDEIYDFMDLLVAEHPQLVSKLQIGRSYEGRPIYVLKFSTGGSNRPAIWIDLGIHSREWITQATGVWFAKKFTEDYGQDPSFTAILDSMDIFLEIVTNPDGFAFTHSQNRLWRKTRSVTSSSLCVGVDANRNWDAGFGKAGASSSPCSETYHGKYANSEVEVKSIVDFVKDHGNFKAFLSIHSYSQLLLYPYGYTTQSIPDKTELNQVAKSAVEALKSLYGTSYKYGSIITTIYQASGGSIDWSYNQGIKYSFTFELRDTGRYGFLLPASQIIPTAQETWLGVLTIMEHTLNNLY
Description: Carboxypeptidase A activity assay. Conditions: Ki class; compounds tested in 5% DMSO, 12 concentrations. The assay is classed as biochemical. In short, it runs like this:
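Ki obtained by correcting apparent Ki for substrate, Ki=Kiapp/(1+[S]/Km), from 12-concentration series. Enzyme activity read by absorbance at 328 nm with 5% DMSO present, EDTA stop.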

For another assay, the target named is T2, ACE (Sigma, A2580) (Sus scrofa, UniProt F1RRW5).
T2 construct: ACE from porcine kidney; purchased Sigma A2580; host or cells: porcine kidney
T2 sequence (F1RRW5 34-1309): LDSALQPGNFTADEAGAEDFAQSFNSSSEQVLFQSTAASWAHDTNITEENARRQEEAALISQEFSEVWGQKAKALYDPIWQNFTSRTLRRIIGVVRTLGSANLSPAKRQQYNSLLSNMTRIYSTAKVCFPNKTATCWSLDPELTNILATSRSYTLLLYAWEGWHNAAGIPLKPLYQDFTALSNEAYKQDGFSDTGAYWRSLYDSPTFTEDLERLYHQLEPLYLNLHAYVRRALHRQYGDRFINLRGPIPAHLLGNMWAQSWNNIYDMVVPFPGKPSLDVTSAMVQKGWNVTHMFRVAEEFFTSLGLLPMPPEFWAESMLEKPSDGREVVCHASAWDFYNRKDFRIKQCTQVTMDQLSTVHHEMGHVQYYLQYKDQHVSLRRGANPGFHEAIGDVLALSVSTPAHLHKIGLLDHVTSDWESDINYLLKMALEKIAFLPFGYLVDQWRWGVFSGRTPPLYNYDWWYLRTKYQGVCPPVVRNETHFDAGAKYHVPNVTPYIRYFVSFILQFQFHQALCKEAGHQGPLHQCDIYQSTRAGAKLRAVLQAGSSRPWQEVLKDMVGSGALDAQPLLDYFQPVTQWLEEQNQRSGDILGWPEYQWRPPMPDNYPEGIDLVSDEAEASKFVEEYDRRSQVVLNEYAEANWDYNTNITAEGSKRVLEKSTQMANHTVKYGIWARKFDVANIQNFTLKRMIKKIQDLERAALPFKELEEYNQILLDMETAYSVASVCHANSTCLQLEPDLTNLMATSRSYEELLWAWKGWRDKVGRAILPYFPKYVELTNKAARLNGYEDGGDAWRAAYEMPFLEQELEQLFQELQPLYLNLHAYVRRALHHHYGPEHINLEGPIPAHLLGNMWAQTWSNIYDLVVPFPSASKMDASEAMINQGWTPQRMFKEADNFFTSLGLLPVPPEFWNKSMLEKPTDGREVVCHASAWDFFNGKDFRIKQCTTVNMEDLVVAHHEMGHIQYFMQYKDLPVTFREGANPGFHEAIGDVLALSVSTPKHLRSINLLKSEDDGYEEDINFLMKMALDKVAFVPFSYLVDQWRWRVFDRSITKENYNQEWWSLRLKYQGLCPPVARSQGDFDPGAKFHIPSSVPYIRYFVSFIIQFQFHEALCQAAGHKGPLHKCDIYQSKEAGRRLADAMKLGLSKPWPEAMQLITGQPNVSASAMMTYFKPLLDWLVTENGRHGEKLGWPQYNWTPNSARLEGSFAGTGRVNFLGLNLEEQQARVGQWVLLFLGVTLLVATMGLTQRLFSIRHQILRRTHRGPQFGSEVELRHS
Kind of assay: ACE enzymatic activity assay. It counts as biochemical, porcine. Conditions: Ki class; compounds tested in 5% DMSO, 12 concentrations. In short, it runs like this:
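Fluorogenic substrate cleavage by 1 nM ACE, read at 320/405 nm after EDTA stop at ~30 min. Reactions at 25 °C, pH 7.5, in HEPES/NaCl/Brij-35 buffer; compounds tested at 12 concentrations in 5% DMSO.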

In assay [2] the target is T3, ACE-2 (Homo sapiens, UniProt Q9BYF1).
T3 construct: a stop codon inserted after the serine immediately preceding the transmembrane domain; made in house; host or cells: CHO K1 cells (transient transfection, purified from conditioned medium)
Description: ACE-2 Competitive Substrate Assay (ACS Assay). It counts as biochemical. Conditions: Ki class; compounds tested in 5% DMSO, 12 concentrations; read-out: Human ACE-2 Activity.

pKi: −log10 of the molar value.

T3 sequence (Q9BYF1 18-740 limits assumed): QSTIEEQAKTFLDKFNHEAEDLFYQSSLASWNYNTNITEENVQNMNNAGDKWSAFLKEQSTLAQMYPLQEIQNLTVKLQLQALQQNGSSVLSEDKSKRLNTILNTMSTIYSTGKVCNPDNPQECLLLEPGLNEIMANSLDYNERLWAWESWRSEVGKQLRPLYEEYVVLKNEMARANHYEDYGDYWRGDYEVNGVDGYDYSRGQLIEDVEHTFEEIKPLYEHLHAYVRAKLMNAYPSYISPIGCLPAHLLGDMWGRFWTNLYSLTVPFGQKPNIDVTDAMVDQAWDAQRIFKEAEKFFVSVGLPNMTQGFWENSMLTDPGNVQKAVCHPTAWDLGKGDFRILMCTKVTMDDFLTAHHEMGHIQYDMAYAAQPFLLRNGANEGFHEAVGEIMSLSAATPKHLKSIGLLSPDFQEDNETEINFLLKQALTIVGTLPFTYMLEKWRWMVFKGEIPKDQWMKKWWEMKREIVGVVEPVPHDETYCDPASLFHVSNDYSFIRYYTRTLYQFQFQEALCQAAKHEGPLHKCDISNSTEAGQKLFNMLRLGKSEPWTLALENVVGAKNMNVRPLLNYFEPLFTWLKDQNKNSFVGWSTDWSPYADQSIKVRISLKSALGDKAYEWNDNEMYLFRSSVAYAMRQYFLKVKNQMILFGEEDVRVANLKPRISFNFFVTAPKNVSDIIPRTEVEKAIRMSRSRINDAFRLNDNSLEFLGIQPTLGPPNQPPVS
Chain of ACE-2 (Rattus norvegicus, UniProt Q5EGZ1) (Q5EGZ1 18-805): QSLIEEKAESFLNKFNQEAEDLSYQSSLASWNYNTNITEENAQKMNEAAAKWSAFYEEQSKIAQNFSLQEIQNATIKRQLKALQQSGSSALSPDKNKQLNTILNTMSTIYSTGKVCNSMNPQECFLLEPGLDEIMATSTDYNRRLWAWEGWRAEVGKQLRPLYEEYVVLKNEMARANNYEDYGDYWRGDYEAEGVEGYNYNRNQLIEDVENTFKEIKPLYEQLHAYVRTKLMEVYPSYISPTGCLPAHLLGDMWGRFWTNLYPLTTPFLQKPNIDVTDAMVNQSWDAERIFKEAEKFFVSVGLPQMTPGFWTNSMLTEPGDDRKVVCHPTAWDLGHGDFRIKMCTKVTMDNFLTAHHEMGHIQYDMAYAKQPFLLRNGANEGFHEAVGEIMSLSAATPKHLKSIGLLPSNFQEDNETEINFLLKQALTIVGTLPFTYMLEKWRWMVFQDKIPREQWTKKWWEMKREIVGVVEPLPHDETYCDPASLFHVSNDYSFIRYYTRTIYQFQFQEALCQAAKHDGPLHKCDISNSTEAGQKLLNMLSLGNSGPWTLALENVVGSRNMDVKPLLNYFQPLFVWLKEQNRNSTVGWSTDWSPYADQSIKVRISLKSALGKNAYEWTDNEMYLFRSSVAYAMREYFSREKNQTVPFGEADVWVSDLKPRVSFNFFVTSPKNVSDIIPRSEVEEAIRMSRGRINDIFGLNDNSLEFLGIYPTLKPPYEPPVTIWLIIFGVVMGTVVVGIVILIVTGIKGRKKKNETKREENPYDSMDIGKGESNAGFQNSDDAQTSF

On to `CC(C)[C@H](NC(CCc1ccccc1)C(=O)O)C(=O)O` (stereo partly shown) [AS, 2-(1-Carboxy-3-phenyl-propylamino)-3-methyl-butync acid], for which the pKi on ACE-2 [1] was less than 6.30; on Carboxypeptidase A it was less than 4.30; at ACE (Sigma, A2580) it was less than 4.30; at ACE-2 [2], less than 6.30.
As for `O=C(O)C[C@H](NC(CCc1ccccc1)C(=O)O)C(=O)O` (stereo partly shown) [AZ, 2-(1-Carboxy-3-phenyl-propylamino)-succinicacid], the pKi is less than 6.30 at ACE-2 [1]; less than 4.30 on Carboxypeptidase A; less than 4.30 at ACE (Sigma, A2580); less than 6.30 at ACE-2 [2].
In the case of `CC(C)CC(N[C@H](Cc1c[nH]cn1)C(=O)O)C(=O)O` (stereo partly shown) [BB, 2-[1-Carboxy-2-(1H-imidazol-4-yl)-ethylamino]4-methyl-pentanoic acid], the pKi on ACE-2 [1] is less than 6.30; on Carboxypeptidase A, less than 4.30; on ACE (Sigma, A2580), more than 5.00; at ACE-2 [2] it was less than 6.30.
As for `CCCC(N[C@H](Cc1c[nH]cn1)C(=O)O)C(=O)O` (stereo partly shown) [BC, 2-[1-Carboxy-2-(1H-imidazol-4-yl)-ethylamino]pentanoic-acid], the pKi at ACE-2 [1] is less than 6.30; at Carboxypeptidase A, less than 4.30; at ACE (Sigma, A2580), 4.30 to 5.00; on ACE-2 [2], less than 6.30.
As for `CC(N[C@H](Cc1c[nH]cn1)C(=O)O)C(=O)O` (stereo partly shown) [BD, 2-(1-carboxy-ethylamino)-3-(1H-imidazol-4-yl)-propionic acid], the pKi is less than 6.30 at ACE-2 [1]; less than 4.30 at Carboxypeptidase A; less than 4.30 at ACE (Sigma, A2580); less than 6.30 on ACE-2 [2].
With `CC(C)CC(NC(Cc1ccccn1)C(=O)O)C(=O)O` (stereo not shown) [BF, 2-(1-Carboxy-2-pyridin-2-yl-ethylamino)-4-methyl-pentanoic acid], the pKi on ACE-2 [1] is 6.30 to 7.00; on Carboxypeptidase A, less than 4.30; at ACE (Sigma, A2580), less than 4.30; on ACE-2 [2], less than 6.30.
Turning to `COc1ccc(C(N[C@@H](CC(C)C)C(=O)O)C(=O)O)cc1` (stereo partly shown) [BQ, 2-[(Carboxy-(4-methoxy-phenyl)-methyl]-amino]-4-methyl-pentanoic acid], the pKi was less than 6.30 at ACE-2 [1]; less than 4.30 at Carboxypeptidase A; less than 4.30 at ACE (Sigma, A2580); less than 6.30 on ACE-2 [2].
Regarding `CC(C)C[C@H](NC(C(=O)O)c1ccc2ccccc2c1)C(=O)O` (stereo partly shown) [BR, 2-[(Carboxy-naphthalen-2-yl-methyl)-amino]-4-methyl-pentanoic acid], the pKi at ACE-2 [1] was less than 6.30; at Carboxypeptidase A it was less than 4.30; on ACE (Sigma, A2580), less than 4.30; on ACE-2 [2], less than 6.30.
Consider `CC(C)C[C@@H](N[C@H](C(=O)O)c1ccccc1)C(=O)O` [BS, 2-[(Carboxy-phenyl-methyl)-amino]-4-methyl-pentanoic acid], for which the pKi at ACE-2 [1] was less than 6.30; at Carboxypeptidase A, less than 4.30; at ACE (Sigma, A2580), less than 4.30; at ACE-2 [2], less than 6.30.
As for `CC(C)C[C@@H](N[C@@H](C(=O)O)c1ccccc1)C(=O)O` [BT, 2-[(Carboxy-phenyl-methyl)-amino]-4-methyl-pentanoic acid], the pKi on ACE-2 [1] was less than 6.30; at Carboxypeptidase A it was less than 4.30; at ACE (Sigma, A2580) it was less than 4.30; on ACE-2 [2], less than 6.30.
Take `NCCCC[C@H](NC(CCc1ccccc1)C(=O)O)C(=O)O` (stereo partly shown) [BU, 6-Amino-2-(1-carboxy-3-phenyl-propylamino)-hexanoic acid]: the pKi was less than 6.30 on ACE-2 [1]; less than 4.30 on Carboxypeptidase A; less than 4.30 at ACE (Sigma, A2580); less than 6.30 on ACE-2 [2].
On to `CC(C)CC(N[C@@H](Cc1cn(Cc2ccccc2)cn1)C(=O)O)C(=O)O` (stereo partly shown) [BV, 2-[2-(1-Benzyl-1H-imidazol-4-yl)-1-carboxy-ethylamino]-4-methyl-pentanoic acid], for which the pKi on ACE-2 [1] is less than 6.30; on Carboxypeptidase A it was more than 5.00; at ACE (Sigma, A2580) it was 4.30 to 5.00; on ACE-2 [2], less than 6.30.
`CC(C)C[C@H](N[C@@H](Cc1ccccc1)C(=O)O)C(=O)O` [BW, 2-(1-Carboxy-2-phenyl-ethylamino)-4-methyl-pentanoic acid]: the pKi is 6.30 to 7.00 on ACE-2 [1]; 4.30 to 5.00 on Carboxypeptidase A; less than 4.30 at ACE (Sigma, A2580); less than 6.30 on ACE-2 [2].
On the same counts, the results for `CC(C)CC(N[C@H](Cc1cn(C)cn1)C(=O)O)C(=O)O` (stereo partly shown) [CA, 2-[-Carboxy-2-(1-methyl-1H-imidazol-4-yl)-ethylamino]-4-methyl-pentanoic acid] are less than 6.30, less than 4.30, less than 4.30 and less than 6.30.
As to `CC(C)CC(N[C@H](Cc1cncn1C)C(=O)O)C(=O)O` (stereo partly shown) [CB, 2-[1-Carboxy-2-(3-methyl-3H-imidazol-4-yl)-ethylamino]-4-methyl-pentanoic acid], the pKi at ACE-2 [1] was less than 6.30; at Carboxypeptidase A it was less than 4.30; at ACE (Sigma, A2580), less than 4.30; at ACE-2 [2], less than 6.30.
Turning to `CC(C)CC(N[C@H](Cc1cccnc1)C(=O)O)C(=O)O` (stereo partly shown) [CC, 2-(1-Carboxy-2-pyridin-3-yl-ethylamino)-4-methyl-pentanoic acid], the pKi on ACE-2 [1] is less than 6.30; at Carboxypeptidase A it was less than 4.30; at ACE (Sigma, A2580), less than 4.30; on ACE-2 [2], less than 6.30.
As to `CC(C)CC(N[C@@H](Cc1nc[nH]n1)C(=O)O)C(=O)O` (stereo partly shown) [CD, 2-[1-Caboxy-2-(1H-[1,2,4]triazol-3-yl)-ethylamino]-4-methyl-pentanoic acid], the pKi at ACE-2 [1] was 6.30 to 7.00; at Carboxypeptidase A it was less than 4.30; on ACE (Sigma, A2580), less than 4.30; at ACE-2 [2] it was less than 6.30.
Consider `CC(C)CC(N[C@H](Cc1nc[nH]n1)C(=O)O)C(=O)O` (stereo partly shown) [CE, 2-[1-Carboxy-2-(1H-[1,2,4]triazol-3-yl)-ethylamino]-4-methyl-pentanoic acid], for which the pKi is less than 6.30 at ACE-2 [1]; less than 4.30 on Carboxypeptidase A; less than 4.30 at ACE (Sigma, A2580); less than 6.30 on ACE-2 [2].
Take `CC(C)CC(NC(Cc1nccs1)C(=O)O)C(=O)O` (stereo not shown) [CF, 2-(1-Carboxy-2-thiazol-2-yl-ethylamino)-4-methyl-pentanoic acid]: the pKi on ACE-2 [1] is 6.30 to 7.00; at Carboxypeptidase A, less than 4.30; on ACE (Sigma, A2580), less than 4.30; on ACE-2 [2], less than 6.30.
Regarding `CC(C)(C)C[C@H](N[C@@H](C(=O)O)c1ccccc1)C(=O)O` [CJ, 2-[(Carboxy-phenyl-methyl)-amino]-4,4-dimethyl-pentanoic acid], the pKi was less than 6.30 on ACE-2 [1]; less than 4.30 on Carboxypeptidase A; less than 4.30 at ACE (Sigma, A2580); less than 6.30 on ACE-2 [2].
As for `CC(C)(C)C[C@H](N[C@@H](CCc1ccccc1)C(=O)O)C(=O)O` [CK, 2-(1-Carboxy-3-phenyl-propylamino)-4,4-dimethylpentanoic acid], the pKi on ACE-2 [1] was 6.30 to 7.00; at Carboxypeptidase A it was less than 4.30; on ACE (Sigma, A2580), less than 4.30; at ACE-2 [2] it was less than 6.30.
With `O=C(O)[C@H](CCc1ccccc1)N[C@@H](CC1CC1)C(=O)O` [CL, 2-(1-Carboxy-2-cyclopropyl-ethylamino)-4-phenyl-butync acid], the pKi on ACE-2 [1] is 6.30 to 7.00; on Carboxypeptidase A, less than 4.30; on ACE (Sigma, A2580), less than 4.30; at ACE-2 [2] it was less than 6.30.
